The target in the assay is T1, ecLpxC (UDP-3-O-acyl-N-acetylglucosamine deacetylase) (Escherichia coli, UniProt P0A725).
T1 sequence (P0A725 1-305): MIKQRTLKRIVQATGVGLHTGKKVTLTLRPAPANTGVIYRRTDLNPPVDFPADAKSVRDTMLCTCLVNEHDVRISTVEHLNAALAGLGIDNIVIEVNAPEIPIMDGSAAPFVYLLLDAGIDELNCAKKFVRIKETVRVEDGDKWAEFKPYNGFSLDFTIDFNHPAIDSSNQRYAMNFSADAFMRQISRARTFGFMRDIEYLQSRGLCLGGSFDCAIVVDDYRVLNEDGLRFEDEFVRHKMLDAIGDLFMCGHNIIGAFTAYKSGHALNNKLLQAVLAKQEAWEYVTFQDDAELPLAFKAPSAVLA
Kind of assay: residence time on purified ecLpxC by displacement with fluorescent ligand PT900. The assay is classed as binding. The following applies: read-out: tR (min)^b.

The text below walks through data of PMC8791448 (ACS infectious diseases, 2021).

Turning to `C[C@@H](O)[C@H](NC(=O)c1ccc(C#Cc2ccc(CN3CCOCC3)cc2)cc1)C(=O)NO` [CHIR-090], the residence time was 66 ± 30 min.
